# Source: patent publication US10793568B2, “Hormone receptor modulators for treating metabolic conditions and disorders” (ARDELYX, INC., priority 2016, dated 2020)
# Columns and labels:
# [1] = biological target: human Farnesoid X receptor ligand-binding domain/Gal4 DNA binding domain chimera (Homo sapiens (Human), UniProt Q96RI1); assay: Cell-based assay of FXR activation (FXR-UAS-bla HEK 293T beta-lactamase reporter); details: cellular FXR beta-lactamase reporter assay; for Emax: HEK-293T, extent of activation relative to GW4064, read-out: % Efficacy; for EC50: FXR-UAS-bla HEK 293T cells, 16 h, pEC50 = -log EC50
# Chain of human Farnesoid X receptor ligand-binding domain/Gal4 DNA binding domain chimera (Q96RI1 262-486, change not shown): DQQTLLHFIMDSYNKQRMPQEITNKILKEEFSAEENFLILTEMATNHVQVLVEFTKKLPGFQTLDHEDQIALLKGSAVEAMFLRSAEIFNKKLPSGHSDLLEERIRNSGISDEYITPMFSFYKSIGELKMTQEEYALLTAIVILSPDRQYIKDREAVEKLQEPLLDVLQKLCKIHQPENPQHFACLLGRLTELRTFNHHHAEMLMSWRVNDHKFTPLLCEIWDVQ
# Chain of human Farnesoid X receptor ligand-binding domain/Gal4 DNA binding domain chimera (P04386 1-147 partner): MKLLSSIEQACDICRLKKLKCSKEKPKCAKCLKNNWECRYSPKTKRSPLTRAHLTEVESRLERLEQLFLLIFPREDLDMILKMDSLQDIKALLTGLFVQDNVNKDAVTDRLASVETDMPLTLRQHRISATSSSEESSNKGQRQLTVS
# Outline: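 HEK 293T cells stably expressing a Gal4-fused human FXR LBD and a UAS-driven beta-lactamase reporter were incubated with serially diluted compounds for 16 h at 37 °C in phenol red-free DMEM with 2% charcoal-stripped FBS. CCF4 FRET read-out: excitation 409 nm, emission 447 nm. pEC50 comes from a 3-parameter logistic fit, and efficacy is given as % of GW4064.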
# [2] = biological target: ligand binding domain of human FXR (Homo sapiens (Human), UniProt Q96RI1); assay: FXR ligand binding assay (LanthaScreen TR-FRET, SRC2-2 peptide recruitment); details: for pEC50: -log EC50, concentration required to produce 50% activation; for Emax: extent of activation relative to GW4064, read-out: % Efficacy
# Chain of ligand binding domain of human FXR (Q96RI1 262-486): as the sequence (Q96RI1 262-486, change not shown) above
Structure (SMILES),Emax [1] [%],EC50 [1] [nM],pEC50 [2],Emax [2] [%]
"O=C(O)c1ccc(N2C(=O)[C@@H]3C[C@H]2C[C@H]3OCc2c(-c3c(F)cccc3C3CC3)noc2C2CC2)cc1 [Compound I-311, 4-[(1S,4R,5R)-5-{[5-cyclopropyl-3-(2-cyclopropyl-6-fluorophenyl)-1,2-oxazol-4-yl]methoxy}-3-oxo-2-azabicyclo[2.2.1]heptan-2-yl]benzoic Acid]",105,3.98,7.8,148
"O=C(O)C1CCc2cc(N3C(=O)[C@@H]4C[C@H]3C[C@H]4OCc3c(-c4c(Cl)cccc4Cl)noc3C3CC3)ccc21 (stereo partly drawn) [Compound I-312, 5-[(1S,4R,5R)-5-{[5-cyclopropyl-3-(2,6-dichlorophenyl)-1,2-oxazol-4-yl]methoxy}-3-oxo-2-azabicyclo[2.2.1]heptan-2-yl]-2,3-dihydro-1H-indene-1-carboxylic Acid]",134,20,7,149
"O=C(O)C1Cc2ccc(N3C(=O)[C@@H]4C[C@H]3C[C@H]4OCc3c(-c4c(Cl)cccc4Cl)noc3C3CC3)cc2C1 (stereo partly drawn) [Compound I-313, 5-[(1S,4R,5R)-5-{[5-cyclopropyl-3-(2,6-dichlorophenyl)-1,2-oxazol-4-yl]methoxy}-3-oxo-2-azabicyclo[2.2.1]heptan-2-yl]-2,3-dihydro-1H-indene-2-carboxylic Acid]",112,25.1,7,140
"O=C(O)c1ccc(N2C(=O)[C@@H]3C[C@H]2C[C@H]3OCc2c(-c3c(Cl)cccc3Cl)noc2C2CC2)cc1F [Compound I-314, 4-[(1S,4R,5R)-5-{[5-cyclopropyl-3-(2,6-dichlorophenyl)-1,2-oxazol-4-yl]methoxy}-3-oxo-2-azabicyclo[2.2.1]heptan-2-yl]-2-fluorobenzoic Acid]",103,2.51,8.4,145
"O=C(O)c1ccc(N2C(=O)[C@@H]3C[C@H]2C[C@H]3OCc2c(-c3c(Cl)cccc3Cl)noc2C2CC2)c(F)c1 [Compound I-315, 4-[(1S,4R,5R)-5-{[5-cyclopropyl-3-(2,6-dichlorophenyl)-1,2-oxazol-4-yl]methoxy}-3-oxo-2-azabicyclo[2.2.1]heptan-2-yl]-3-fluorobenzoic Acid]",106,25.1,7.4,157
"Cc1cc(N2C(=O)[C@@H]3C[C@H]2C[C@H]3OCc2c(-c3c(Cl)cccc3Cl)noc2C2CC2)ccc1C(=O)O [Compound I-316, 4-[(1S,4R,5R)-5-{[5-cyclopropyl-3-(2,6-dichlorophenyl)-1,2-oxazol-4-yl]methoxy}-3-oxo-2-azabicyclo[2.2.1]heptan-2-yl]-2-methylbenzoic Acid]",109,7.94,7.6,152
"Cc1cc(C(=O)O)ccc1N1C(=O)[C@@H]2C[C@H]1C[C@H]2OCc1c(-c2c(Cl)cccc2Cl)noc1C1CC1 [Compound I-317, 4-[(1S,4R,5R)-5-{[5-cyclopropyl-3-(2,6-dichlorophenyl)-1,2-oxazol-4-yl]methoxy}-3-oxo-2-azabicyclo[2.2.1]heptan-2-yl]-3-methylbenzoic Acid]",126,100,6.7,131
"CCc1cc(N2C(=O)[C@@H]3C[C@H]2C[C@H]3OCc2c(-c3c(Cl)cccc3Cl)noc2C2CC2)ccc1C(=O)O [Compound I-318, 4-[(1S,4R,5R)-5-{[5-cyclopropyl-3-(2,6-dichlorophenyl)-1,2-oxazol-4-yl]methoxy}-3-oxo-2-azabicyclo[2.2.1]heptan-2-yl]-2-ethylbenzoic Acid]",116,6.31,7.2,127
"O=C(O)c1ccc(N2C(=O)[C@@H]3C[C@H]2C[C@H]3OCc2c(-c3c(Cl)cccc3Cl)noc2C2CC2)cc1C1CC1 [Compound I-319, 2-cyclopropyl-4-[(1S,4R,5R)-5-{[5-cyclopropyl-3-(2,6-dichlorophenyl)-1,2-oxazol-4-yl]methoxy}-3-oxo-2-azabicyclo[2.2.1]heptan-2-yl]benzoic Acid]",113,10,7.4,118
"O=C(O)c1ccc(C2CC2)cc1N1C(=O)[C@@H]2C[C@H]1C[C@H]2OCc1c(-c2c(Cl)cccc2Cl)noc1C1CC1 [Compound I-320, 4-cyclopropyl-2-[(1S,4R,5R)-5-{[5-cyclopropyl-3-(2,6-dichlorophenyl)-1,2-oxazol-4-yl]methoxy}-3-oxo-2-azabicyclo[2.2.1]heptan-2-yl]benzoic Acid]",110,20,7.5,114
"CC1(C)CC(S(=O)(=O)NC(=O)c2ccc(N3C(=O)[C@@H]4C[C@H]3C[C@H]4OCc3c(-c4c(Cl)cccc4Cl)noc3C3CC3)cc2)CCO1 (stereo partly drawn) [Compound I-329, 4-[(1S,4R,5R)-5-{[5-cyclopropyl-3-(2,6-dichlorophenyl)-1,2-oxazol-4-yl]methoxy}-3-oxo-2-azabicyclo[2.2.1]heptan-2-yl]-N-[(2,2-dimethyloxan-4-yl)sulfonyl]benzamide]",117,0.794,9,162
"CC1(C)CC(S(=O)(=O)NC(=O)c2ccc(N3C(=O)[C@@H]4C[C@H]3C[C@H]4OCc3c(-c4c(Cl)cccc4Cl)noc3C3CC3)cc2F)CCO1 (stereo partly drawn) [Compound I-330, 4-[(1S,4R,5R)-5-{[5-cyclopropyl-3-(2,6-dichlorophenyl)-1,2-oxazol-4-yl]methoxy}-3-oxo-2-azabicyclo[2.2.1]heptan-2-yl]-N-[(2,2-dimethyloxan-4-yl)sulfonyl]-2-fluorobenzamide]",120,0.158,8.8,156
"O=C(NS(=O)(=O)C1CC1)c1ccc(N2C(=O)[C@@H]3C[C@H]2C[C@H]3OCc2c(-c3c(Cl)cccc3Cl)noc2C2CC2)cc1F [Compound I-331, 4-((1S,4R,5R)-5-((5-cyclopropyl-3-(2,6-chlorophenyl)isoxazol-4-yl)methoxy)-3-oxo-2-azabicyclo[2.2.1]heptan-2-yl)-N-(cyclopropylsulfonyl)-2-fluorobenzamiide]",107,0.316,8.7,180
"O=C(NS(=O)(=O)C1CCOCC1)c1ccc(N2C(=O)[C@@H]3C[C@H]2C[C@H]3OCc2c(-c3c(Cl)cccc3Cl)noc2C2CC2)cc1F [Compound I-332, 4-((1S,4R,5R)-5-((5-cyclopropyl-3-(2,6-dichlorophenyl)isoxazol-4-yl)methoxy)-3-oxo-2-azabicyclo[2.2.1]heptan-2-yl)-2-fluoro-N-((tetrahydro-2H-pyran-4-yl)sulfonyl)benzamide]",100,0.316,8.8,150
"O=C(NS(=O)(=O)CC1CCOCC1)c1ccc(N2C(=O)[C@@H]3C[C@H]2C[C@H]3OCc2c(-c3c(Cl)cccc3Cl)noc2C2CC2)cc1F [Compound I-333, 4-((1S,4R,5R)-5-((5-cyclopropyl-3-(2,6-dichlorophenyl)isoxazol-4-yl)methoxy)-3-oxo-2-azabicyclo[2.2.1]heptan-2-yl)-2-fluoro-N-(((tetrahydro-2H-pyran-4-yl)methyl)sulfonyl)benzamide]",112,0.501,8.8,158
"O=C(NS(=O)(=O)C1CCOC1)c1ccc(N2C(=O)[C@@H]3C[C@H]2C[C@H]3OCc2c(-c3c(Cl)cccc3Cl)noc2C2CC2)cc1F (stereo partly drawn) [Compound I-334, 4-((1S,4R,5R)-5-((5-cyclopropyl-3-(2,6-dichlorophenyl)isoxazol-4-yl)methoxy)-3-oxo-2-azabicyclo[2.2.1]heptan-2-yl)-2-fluoro-N-((tetrahydrofuran-3-yl)sulfonyl)benzamide]",104,1,9,180
"O=C(NS(=O)(=O)CC1CCOC1)c1ccc(N2C(=O)[C@@H]3C[C@H]2C[C@H]3OCc2c(-c3c(Cl)cccc3Cl)noc2C2CC2)cc1F (stereo partly drawn) [Compound I-335, 4-((1S,4R,5R)-5-((5-cyclopropyl-3-(2,6-dichlorophenyl)isoxazol-4-yl)methoxy)-3-oxo-2-azabicyclo[2.2.1]heptan-2-yl)-2-fluoro-N-(((tetrahydrofuran-3-yl)methyl)sulfonyl)benzamide]",108,1,8.8,172
"O=C(NS(=O)(=O)CCC1CCOC1)c1ccc(N2C(=O)[C@@H]3C[C@H]2C[C@H]3OCc2c(-c3c(Cl)cccc3Cl)noc2C2CC2)cc1F (stereo partly drawn) [Compound I-336, 4-((1S,4R,5R)-5-((5-cyclopropyl-3-(2,6-dichlorophenyl)isoxazol-4-yl)methoxy)-3-oxo-2-azabicyclo[2.2.1]heptan-2-yl)-2-fluoro-N-((2-(tetrahydrofuran-3-yl)ethyl)sulfonyl)benzamide]",125,2.51,8.6,182
"O=C(NS(=O)(=O)C1CC1)c1ccc(N2C(=O)[C@@H]3C[C@H]2C[C@H]3OCc2c(-c3c(Cl)cccc3Cl)noc2C2CC2)cc1 [Compound I-337, 4-((1S,4R,5R)-5-((5-cyclopropyl-3-(2,6-dichlorophenyl)isoxazol-4-yl)methoxy)-3-oxo-2-azabicyclo[2.2.1]heptan-2-yl)-N-(cyclopropylsulfonyl)benzamide]",110,2,8.6,174
O=C(NS(=O)(=O)C1CCOCC1)c1ccc(N2C(=O)[C@@H]3C[C@H]2C[C@H]3OCc2c(-c3c(Cl)cccc3Cl)noc2C2CC2)cc1 [Compound I-338],106,15.8,8.9,158
